Results from patent US8993000B2, “Method for inducing differentiation of dental pulp cells into odontoblasts” (National University Corporation Okayama University, priority 2009, dated 2015).

B1: R-Spondin2: protein capable of directly activating a Wnt signaling pathway (R&D Systems, catalog No. 3266-RS/CF) (protein, UniProt Q6UXX9 22-243, looked up)
R-spondin-2: QGNRWRRSKRASYVSNPICKGCLSCSKDNGCSRCQQKLFFFLRREGMRQYGECLHSCPSGYYGHRAPDMNRCARCRIENCDSCFSKDFCTKCKVGFYLHRGRCFDECPDGFAPLEETMECVEGCEVGHWSEWGTCSRNNRTCGFKWGLETRTRQIVKKPVKDTILCPTIAESRRCKMTMRHCPGGKRTPKAKEKRNKKKKRKLIERAQEQHSVFLATDRANQ
B2: Norrin: protein capable of directly activating a Wnt signaling pathway (R&D Systems, catalog No. 3014-NR) (protein, UniProt Q00604 25-133, looked up)
Norrin: KTDSSFIMDSDPRRCMRHHYVDSISHPLYKCSSKMVLLARCEGHCSQASRSEPLVSFSTVLKQPFRSSCHCCRPQTSKLKALRLRCSGGMRLTATYRYILSCHCEECNS

Test system: MEDP cells as a pulp-derived cell line
Test: Dspp expression by PCR in cultured MEDP pulp-derived cells (induction of differentiation into odontoblasts)
Format: cell-based
Conditions: for expression of Dspp (relative ratio of DSPP to GADPH amplification product): fibronectin-coated vessel; for expression of Dspp in a pulp-derived cell line: same technique as Example 1, addition concentration to be considered
Procedure: In this example, MEDP cells as a pulp-derived cell line were cultured in a system including NaClO3, and the expression of Dspp in the cultured cells was confirmed. The expression of Dspp was confirmed by PCR.
The MEDP cells were cultured using a DMEM medium containing 10% v/v fetal bovine serum (FBS). The cells were suspended in the medium so that the number of the cells was 3.7×10^5 cells/ml, and 5 ml of the cell suspension were added to a culture vessel having a diameter of 6 cm and cultured. The culture was carried out using a culture vessel coated with fibronectin (FN) at 37±0.5° C. On day 1 of the culture, […] was added so that the final concentration was 50 mM or 100 mM, and the cells were cultured for an additional 7 days.
After mRNA had been extracted from the cultured cells using an RNeasy Mini Kit™ (manufactured by QIAGEN), reverse transcription was carried out using a PrimeScript™ Reverse Transcriptase (manufactured by TAKARA) to prepare cDNA, which was used as a sample for PCR. The extraction of mRNA and the preparation of cDNA were carried out in accordance with the manufacturer's instructions. Primers formed of base sequences set forth in SEQ ID NOS: 1 and 2 of the sequence listing were used as primers for amplification of DSPP, and primers formed of base sequences set forth in SEQ ID NOS: 3 and 4 of the sequence listing were used as primers for amplification of GADPH as a control gene. The PCR was carried out using a LightCycler™ (manufactured by Roche). The expression amount of DSPP was confirmed with a relative ratio between an amplification product of DSPP and an amplification product of GADPH.
A treatment for inducing differentiation was carried out by the same technique as that of Example 1 except that LiCl was used in place of NaClO3 and LiCl was added so that the final concentration was 5 mM or 50 mM on day 1 of the culture. Then, the expression of Dspp was confirmed.
A treatment for inducing differentiation was carried out by the same technique as that of Example 1 except that NaClO4 was used in place of NaClO3. Then, the expression of Dspp was confirmed.
A treatment for inducing differentiation is carried out by the same technique as that of Example 1 except that Norrin (R&D Systems, Inc.: catalog No.: 3014-NR) is used in place of NaClO3. Then, the expression of Dspp is confirmed. The addition concentration of Norrin is to be considered.
A treatment for inducing differentiation is carried out by the same technique as that of Example 1 except that R-Spondin2 (R&D Systems, Inc.: catalog No.: 3266-RS/CF) is used in place of NaClO3. Then, the expression of Dspp is confirmed. The addition concentration of R-Spondin2 is to be considered.

[1] = 50 mM or 100 mM added on day 1, cultured additional 7 days

Molecule | expression of Dspp (relative ratio of DSPP to GADPH amplification product) [1] | expression of Dspp in a pulp-derived cell line | further results
[Cl-].[Li+] [LiCl, lithium chloride] |  |  | expression of Dspp (relative ratio of DSPP to GADPH amplification product) (5 mM or 50 mM added on day 1, cultured additional 7 days): significantly enhanced
[Na+].[O-][Cl+2]([O-])[O-] [NaClO3, sodium chlorate] | significantly enhanced |  | 
[O-][Cl+3]([O-])([O-])O [sodium perchlorate] | significantly enhanced |  | 
B1 |  | significantly enhances | 
B2 |  | significantly enhances | 
